Test results as given in US20250340944A1, “METHOD TO ASSIST IN SCREENING FOR LATE RECURRENCE OF ER+ BREAST CANCER, AND METHOD FOR SCREENING THERAPEUTIC DRUGS” (JAPANESE FOUNDATION FOR CANCER RESEARCH, priority 2022, published 2025).

How the values were obtained:
Type in all cases: cell-based
CD44 mRNA = test: RT-qPCR of CD44 mRNA after suppression of ELEANOR expression by LNAs; details: HCC1428-LTED cells, ELEANOR knock-down by LNA
Experimental: FIG. 5D is a graph showing the results of RT-qPCR analysis of expressions of ESR1 and CD44 when ELEANORS are knocked down by ELEANOR2 LNA and pa-ELEANOR LNA.
Expressions of ESR1, ELEANORS, and CD44 in the HC1428 and HC1428-LTED cells were analyzed by RT-qPCR using the primers below. In the RT-qPCR, total RNA was purified from cultured cells using NucleoSpin RNA/protein kit (MACHEREY-NAGEL) and was reverse-transcribed by ReverTra Ace qPCR RT Master Mix (TOYOBO Co., Ltd.). The RT-qPCR was performed by ABI Prism 7500 (ABI inc.) using SYBR Green.
Subsequently, the ELEANOR expression was suppressed by LNAs of SEQ ID NO: 1 and SEQ ID NO: 41 specific to ELEANORS, and whether the CD44 expression is changed or not was investigated. The expression of CD44 mRNA was decreased by knock-down of these ELEANORS (FIG. 5D).

HCC1428-LTED cells [1] = test: FACS analysis of CD44/CD24 expression (breast cancer stem cells) after LNA knock-down of ELEANOR2; details: LNA transfected with RNAiMAX, analysis after 48 hours
Experimental: ELEANOR2 RNA which is most abundant in ELEANORS was knocked down by LNA, and CD44/CD24 expression was analyzed by FACS (FIG. 5B). The LNA below was transfected using RNAiMAX (Invitrogen), and analysis was performed after 48 hours.

HCC1428-LTED cells [2] = test: FACS analysis of CD44 expression on the cell surface after ELEANOR knock-down
Experimental: The maximum value in the analysis is defined as 100.
Whether the CD44 expression is changed also at the protein level was investigated. Comparative analysis of CD44 expression between HCC1428 and HCC1428-LTED cells was performed. The LNA of SEQ ID NO: 1 that suppresses ELEANOR expression and siRNA (Thermo Fisher Scientific) that suppresses CD44 expression were introduced into HCC1428-LTED cells, and the CD44 expression was analyzed by Western blotting (FIG. 5E). […] Furthermore, an ELEANOR was knocked down by introducing the LNA of SEQ ID NO: 1 into HCC1428-LTED cells, and whether the CD44 expression on the cell surface is also changed or not was analyzed by FACS.

Substance | expression of CD44 mRNA (CD44 mRNA) | number of breast cancer stem cells (CD44+/CD24-/low) (HCC1428-LTED cells [1]) | number of CD44+ cells (HCC1428-LTED cells [2])
pa-ELEANOR-LNA: LNA specific to pa-ELEANOR, sequence GTGCCAGACTCCGATA (SEQ ID NO: 41) (LNA-modified antisense, pattern not given here) | decreased |  | 
ELEANOR2-LNA: LNA that knocks down ELEANOR2 RNA, sequence TTTGGCCACATTGGAA (SEQ ID NO: 1) (LNA-modified antisense, pattern not given here) | decreased | significantly decreased | decreased
